{"source": "patent US20070167403A1", "about": "“Remedy for spinal canal stenosis” (priority 2003, published 2007)", "system": "rat", "assay_type": "in vivo", "details": "intravenous administration", "protocol": "It has been confirmed that the compounds used in the present invention have low toxicity and are sufficiently safe for use as pharmaceutical preparations. For example, the maximal tolerated dose of the compound A (lysine salt of (5Z,9β,11α,13E)-17,17-propano-11,16-dihydroxy-9-chloro-20-norprosta-5,13-dienoic acid) in the compound represented by formula (I) used in the present invention was 30 mg/kg weight or more for rat intravenous administration."}
{"smiles": "CCC1(C(O)CC=CC2C(O)CC(Cl)C2CC=CCCCC(=O)O)CCC1.NCCCCC(N)C(=O)O", "note": "(stereo not drawn) [Compound A, (5Z,9β,11α,13E)-17,17-propano-11,16-dihydroxy-9-chloro-20-norprosta-5,13-dienoic acid lysine salt]", "values": [{"measurement": "maximal tolerated dose", "value": "≥ 30", "unit": "mg/kg weight"}]}
